# pEC50: −log10 of the molar value.
# Legend:
# in vitro = conditions: mouse, plasma
# In short: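 Oligomer at 5 µM final in mouse plasma/PBS pH 7.4 (1:1) at 37 °C, with a plasma-free control defining t = 0. Aliquots quenched in cold acetonitrile at 20 and 60 min; remaining oligomer quantified by LC-MS extracted-ion peak area.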
# normal mice (C57BL/6J) = test: Blood glucose study in normal fed mice; format: in vivo, mouse; parameters: key to In vivo activity (indicator): + active; +++: + + + more active
# In short: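 Fed male C57BL/6J mice (8 weeks, 20–25 g, n = 3 per group) received a single i.v. dose of 5 µg per mouse (50 nmol kg^−1) in PBS at 10 am. Blood glucose measured before dosing and at 30 min, 1, 2, 4 and 6 h after.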
# [1] = Pharmacokinetic evaluation in mice, i.v. (final study, Fig. 5); conditions: C57BL/6J mice, LC-MS/MS
# Protocol: Data are mean ± SEM, n = 3. Source data are provided as a Source Data file
# After different time points, mice were sacrificed and blood samples were collected. The plasma was separated by centrifugation and the samples were frozen at −80 °C before analysis. A volume of 400 µL of each sample of plasma was mixed with 1 ml of acetonitrile to precipitate the protein and extract the compound. The sample were then vortexed and centrifuged (15,000 × g, 5 min, 16 °C) to sediment the precipitated protein.
# [2] = Pharmacokinetic evaluation in mice, i.v. (first study, peer review file Table 3); conditions: in vivo, normal C57BL/6J mice, male, n = 3, 25 μg/mouse (~250 nmol/kg) intravenous, first PK study
# Protocol: Our current understanding is that […]
# ways (See Figure below for reviewing only).
# (1 picture or pasted object on this page, not shown here)
# PK mice Table 3 | Pharmacokinetic evaluation in mice by i.v.
# *** (m L/m i n/ k g) (mL/kg) (m in)
# Formulation: 2 mg/mL in PB S 1X.
# An additional table has been prepared (Table 3) and the following text was added:
# “A pharmacokinetic study was also conducted in mice to access the pharmacologic […]
# The manuscript by Fremaux et al. describes the synthesis and biological evaluation of α-pept ide- […]
# In the design of those analogues, four […]
# peptide chemistry and medicinal chemistry.
# The authors should, however, revise the manuscript for typographic and gramatical errors. As an example, the following sentence should be revised:
# The manuscript was revised for typographic and grammatical errors and the sentence above was […]
# mouse GLP-1 receptor [3] = biological target: T1, mouse GLP-1 receptor (Mus musculus, UniProt O35659)
# T1 sequence (O35659 22-463): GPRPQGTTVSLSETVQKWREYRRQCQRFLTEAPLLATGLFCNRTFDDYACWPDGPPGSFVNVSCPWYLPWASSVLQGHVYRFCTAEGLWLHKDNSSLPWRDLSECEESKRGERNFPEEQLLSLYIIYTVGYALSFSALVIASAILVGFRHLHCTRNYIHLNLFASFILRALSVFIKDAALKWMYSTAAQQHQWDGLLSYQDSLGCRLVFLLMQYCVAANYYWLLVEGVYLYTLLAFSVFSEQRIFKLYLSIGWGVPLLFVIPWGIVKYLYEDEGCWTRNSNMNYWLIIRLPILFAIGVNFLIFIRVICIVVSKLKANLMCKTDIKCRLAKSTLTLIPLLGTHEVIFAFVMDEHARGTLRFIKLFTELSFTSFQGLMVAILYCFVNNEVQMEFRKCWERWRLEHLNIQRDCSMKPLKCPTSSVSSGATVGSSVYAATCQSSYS
# mouse GLP-1 receptor [4] = biological target: T1, mouse GLP-1 receptor; test: cell-based
# [5] = male, C57BL/6J, mouse, in vivo, iv, 1 mg/kg, Concentration (plasma), animal 1
# [6] = male, C57BL/6J, mouse, in vivo, iv, 1 mg/kg, Concentration (plasma), animal 2
# [7] = male, C57BL/6J, mouse, in vivo, iv, 1 mg/kg, Concentration (plasma), animal 3
smiles,measurement,setting,value
"CC[C@H](C)[C@H](NC(=O)[C@H](Cc1ccccc1)NC(=O)[C@H](CCC(=O)O)NC(=O)[C@H](CCCCN)NC(=O)[C@H](C)NC(=O)[C@H](C)NC(=O)[C@H](CCC(N)=O)NC(=O)CNC(=O)[C@H](CCC(=O)O)NC(=O)[C@H](CC(C)C)NC(=O)[C@H](Cc1ccc(O)cc1)NC(=O)[C@H](CO)NC(=O)[C@H](CO)NC(=O)[C@@H](NC(=O)[C@H](CC(=O)O)NC(=O)[C@H](CO)NC(=O)[C@@H](NC(=O)[C@H](Cc1ccccc1)NC(=O)[C@@H](NC(=O)CNC(=O)[C@H](CCC(=O)O)NC(=O)CNC(=O)[C@@H](N)Cc1c[nH]cn1)[C@@H](C)O)[C@@H](C)O)C(C)C)C(=O)N[C@@H](C)C(=O)N[C@@H](Cc1c[nH]c2ccccc12)C(=O)N[C@@H](CC(C)C)C(=O)N[C@H](C(=O)N[C@@H](CCCCN)C(=O)NCC(=O)N[C@@H](CCCNC(=N)N)C(=O)NCC(N)=O)C(C)C [compound 1, GLP-1-G^2 (GG2)]",half-life,in vitro; pH 7.4,16 min
same,remaining at 20 min,"in vitro; pH 7.4, % remaining analogue",34.8%
same,remaining at 1 h,"in vitro; pH 7.4, % remaining analogue",23.9%
same,In vivo activity (indicator),"normal mice (C57BL/6J); mice, 50 nmol kg−1 i.v.",+
same,effect on blood glucose concentration,"normal mice (C57BL/6J); normal fed C57BL/6J mice, n = 3, 5 μg per mouse (50 nmol kg−1) i.v., monitored 6 h",decreased of blood glucose concentration after 30 min
same,Concentration (plasma),"[1]; time 3 min, animal 3",3680 nM
same,Concentration (plasma),"[1]; time 15 min, animal 3",60 nM
same,Concentration (plasma),"[1]; time 30 min, animal 2",10 nM
same,Concentration (plasma),"[1]; time 30 min, animal 3",0 nM
same,level at time molar at 1 min,[1]; [5],7920 nM
same,level at time molar at 1 min,[1]; [6],8370 nM
same,level at time molar at 1 min,[1]; [7],10800 nM
same,level at time molar at 0.05 h,"[1]; male, C57BL/6J, mouse, in vivo, iv, 1 mg/kg, Concentration (plasma), time 3 min, animal 1",3740 nM
same,level at time molar at 0.05 h,"[1]; male, C57BL/6J, mouse, in vivo, iv, 1 mg/kg, Concentration (plasma), time 3 min, animal 2",3500 nM
same,level at time molar at 5 min,[1]; [5],1780 nM
same,level at time molar at 5 min,[1]; [6],2610 nM
same,level at time molar at 5 min,[1]; [7],2540 nM
same,level at time molar at 10 min,[1]; [5],360 nM
same,level at time molar at 10 min,[1]; [6],430 nM
same,level at time molar at 10 min,[1]; [7],380 nM
same,level at time molar at […],"[1]; male, C57BL/6J, mouse, in vivo, iv, 1 mg/kg, Concentration (plasma), time 15 min, animal 1",100 nM
same,level at time molar at […],"[1]; male, C57BL/6J, mouse, in vivo, iv, 1 mg/kg, Concentration (plasma), time 15 min, animal 2",60 nM
same,level at time molar at 0.5 h,"[1]; male, C57BL/6J, mouse, in vivo, iv, 1 mg/kg, Concentration (plasma), time 30 min, animal 1",10 nM
same,clearance,[2]; 2 mg/mL in PBS 1X,448 mL/min/kg
same,half-life,[2],7 min
same,Vd,[2]; read-out: Vz,4.48 L/kg
same,LogEC50 (best-fit value),mouse GLP-1 receptor [3],-9.62
same,"Potency (%), percentage of potency compare to GLP-1-G^2","mouse GLP-1 receptor [3]; cAMP production, from EC50",100%
same,pEC50,mouse GLP-1 receptor [4],9.62
same,Emax,mouse GLP-1 receptor [4]; read-out: Top (best-fit value),106%
